Columns and labels:
Format in all cases: in vivo
[1] = test system: fibrosis-related genes; test: Real-time PCR of fibrosis-related genes in liver tissue, preventive β-lapachone in DDC mice (Example 2.3); conditions: DDC-BL40 and DDC-BL80 vs DDC-vehicle, DDC 14 days
Method: DDC-induced cholestatic liver disease mouse animal models were prepared according to the method of Elisa Pose et al. by using 8-week-old C57BL/6 male mice (Samtako, Korea). Briefly, cholestatic liver disease was induced by feeding a standard rodent diet supplemented with 0.1% (w/w) DDC for 7 or 14 days. The 12-hour light and dark cycle was maintained and animals were allowed to free access to water. The standard rodent diet included medium wheat, wheat, corn, and corn gluten flour, and soybean oil (14% protein). All animal related procedures were reviewed and approved by the Institutional Animal Care and Use Committee of Korea Research Institute of Bioscience and Biotechnology (KRIBB), KRIBB-AEC-20165). To investigate the preventive effect of β-Lapachone (BL) on cholestatic liver disease, the mice were fed a diet with 0 (DDC-vehicle), 40 mg/kg (DDC-BL40) and 80 mg/kg (DDC-BL80) 3 days before DDC treatment (total 17 days) and, after 3 days, were fed a diet with DDC (total 14 days). After 14 days of DDC treatment, the mice were sacrificed and the liver was harvested including the portal vein (PV) and bile ducts of the mice, and the surrounding lesions were confirmed by H&E, and are shown in FIG. 1. The expression of the factors in the liver tissue obtained from the cholestatic liver disease mouse animal models of Example 2.1 was performed by a real-time polymerase chain reaction was performed according to the following procedure. Total RNA from liver samples was extracted using Tri-RNA Reagent (Favrogen BIOTECH CORP, Nong-Ke Rd, Taiwan) according to the procedure presented by Favrogen, and was reverse transcribed into cDNA by using PrimeScript™ RT reagent Kit with gDNA Eraser (TAKARA Korea Biomedical Inc, Seoul, 08506, Korea). Quantitative PCR was performed using TB Green™ Premix Ex Taq™ II (Tli RNaseH Plus), ROX plus (TAKARA Korea Biomedical Inc, Seoul, 08506, Korea) and QuantStudio 5 Real-Time PCR Instrument (Thermo Fisher Scientific, Waltham, MA, USA).

[2] = test system: inflammatory cytokine factors in the colon tissue; test: mRNA levels of inflammatory cytokine factors in colon tissue of DSS mice (Example 6.2); conditions: DSS + β-lapachone 80 mg/kg
Method: (§1) After 8-week-old C57BL/6 female mice (Samtako, Korea) were divided into each group (=10), each experimental group was fed a standard rodent diet supplemented with 3% (w/w) DSS in drinking water for the first 5 days to induce acute colitis and orally administered control (vehicle), β-lapachone 40 mg/kg, and β-lapachone 80 mg/kg for 14 days.
(§2) By the same method as in Example 6.1, experimental groups were divided into a DSS untreated group (Control), a DSS treated group, and a DSS+β-lapachone 80 mg/kg treated group, respectively, and treated. After the end of the experiment, the mice were sacrificed to remove the colon, and the accurate colon length was measured using a Vernier caliper, and is shown FIGS. 11A and 11B. In addition, the mRNA levels of genes of interleukin-1beta (IL-1β), interleukin-6 (IL-6), interleukin-18 (IL-18), interferon-γ (INF-γ), tumor necrosis factor-α (TNF-α), tumor necrosis factor-β (TNF-β), and monocyte chemoattractant protein-1 (MCP-1), which were inflammatory cytokine factors in the colon tissue, were analyzed by a real-time polymerase chain reaction through a conventional experiment procedure, and are shown in FIG. 12.

[3] = test system: DDC-induced cholestatic liver disease mice; test: H&E histology of portal vein and bile duct lesions, preventive β-lapachone in DDC-induced cholestatic liver disease mice
Method: DDC-induced cholestatic liver disease mouse animal models were prepared according to the method of Elisa Pose et al. by using 8-week-old C57BL/6 male mice (Samtako, Korea). Briefly, cholestatic liver disease was induced by feeding a standard rodent diet supplemented with 0.1% (w/w) DDC for 7 or 14 days. The 12-hour light and dark cycle was maintained and animals were allowed to free access to water. The standard rodent diet included medium wheat, wheat, corn, and corn gluten flour, and soybean oil (14% protein). All animal related procedures were reviewed and approved by the Institutional Animal Care and Use Committee of Korea Research Institute of Bioscience and Biotechnology (KRIBB), KRIBB-AEC-20165). The tissue staining of the cholestatic liver disease animal models was measured through H&E staining (basic tissue staining), Sirius Red staining (collagen staining), and Masson's trichrome staining (collagen, cytoplasm, muscle fibers, etc.), and the tissue staining was measured by a skilled researcher. After the mice were fed a diet containing 0.1% DDC for 14 days, tissue staining was performed for inflammation, fibrosis, and adhesion molecules around the portal vein, and the results are shown in FIG. 1. […]

[4] = test system: DSS-induced inflammatory bowel disease mice; test: Colon length in DSS-induced inflammatory bowel disease mice (Example 6.2); conditions: DSS + β-lapachone 80 mg/kg
Method: as §1, §2

[5] = test system: Poly I:C-induced cholestatic liver disease animal models; test: Blood AST, ALT, ALP in Poly I:C-induced primary biliary cirrhosis mice (Example 5)
Method: Of cholestatic liver diseases, primary biliary cirrhosis (PBC) may be introduced to a similar state by using a viral RNA mimic and the Toll-like receptor polyinosinic-polycytidylic acid (Poly I:C). After 8-week-old C57BL/6 male mice (Samtako, Korea) were divided into each group (=6), each experimental group excluding a normal group was intraperitoneally administered 5 mg/kg Poly I:C twice a week for 8 weeks. Thereafter, the mice were fed a diet with control (vehicle), β-lapachone 40 mg/kg, β-lapachone 80 mg/kg, and positive control ursodeoxycholic acid 100 mg/kg and obeticholic acid 30 mg/kg for 8 weeks. On the 16th week of treatment, the experiment was ended, and the mice were sacrificed and then the blood was collected from the heart.

[6] = β-lapachone 40, 80 mg/kg in diet for 8 weeks after 8 weeks Poly I:C

CC1(C)CCC2=C(O1)c1ccccc1C(=O)C2=O [β-lapachone]
transcriptional level of Co|1α1 in liver [1]: significantly reduced | transcriptional level of Co|4α1 in liver [1]: significantly reduced | transcriptional level of TGF-β1 in liver [1]: significantly reduced | transcriptional level of fibronectin in liver [1]: significantly reduced | transcriptional level of α-SMA in liver [1]: significantly reduced | mRNA level of IL-1β in colon tissue [2]: significantly reduced | mRNA level of IL-6 in colon tissue [2]: significantly reduced | mRNA level of IL-18 in colon tissue [2]: significantly reduced | mRNA level of INF-γ in colon tissue [2]: significantly reduced | mRNA level of MCP-1 in colon tissue [2]: significantly reduced | mRNA level of TNF-α in colon tissue [2]: significantly reduced | mRNA level of TNF-β in colon tissue [2]: significantly reduced | concentration dependence of lesion reduction of portal vein and bile ducts (H&E) ([3]; 80 mg/kg (BL80) compared with 40 mg/kg (BL40)): reduced the lesions of the DDC-treated portal vein and bile ducts depending on the concentration thereof | lesions around the portal vein (PV) and bile ducts (H&E) ([3]; DDC-BL40 and DDC-BL80 (40 and 80 mg/kg in diet from 3 days before DDC, total 17 days; DDC 14 days) vs DDC-vehicle): significant lesion reductions | colon length shortened by DSS [4]: recovered | effect on AST, ALT, ALP compared with comparative substances ([5]; vs ursodeoxycholic acid 100 mg/kg and obeticholic acid 30 mg/kg, 8 weeks): excellent effect compared with the comparative substances ursodeoxycholic acid (UDCA) and obeticholic acid (OCA) | ALP in the blood increased by Poly I:C [5, 6]: inhibited | ALT in the blood increased by Poly I:C [5, 6]: inhibited | AST in the blood increased by Poly I:C [5, 6]: inhibited

From US20240115545A1, “PHARMACEUTICAL COMPOSITION CONTAINING B-LAPACHONE AS ACTIVE INGREDIENT FOR PREVENTION OR TREATMENT OF CHOLESTATIC LIVER DISEASE” (CUROME BIOSCIENCES CO., LTD., priority 2020, published 2024)
